Data on twelve compounds can be found in patent publication US20230167118A1, “DEGRADATION OF BRUTON'S TYROSINE KINASE (BTK) BY CONJUGATION OF BTK INIDBITORS WITH E3 LIGASE LIGAND AND METHODS OF USE” (BEIGENE, LTD., priority 2020, published 2023).

One test concerns HEK-293 cells. The test is described as follows: HEK-293 Cytotoxicity Assay (CellTiter-Glo). The format is cell-based. Particulars: Homo sapiens, HEK293, 72 h incubation, CellTiter-Glo luminescence. On the procedure: HEK-293 Cytotoxicity Assay
HEK-293 cells are treated with compounds diluted in 0.2% DMSO, dilution is done according to the following protocol: (1) make 500× stock solution in DMSO from 5 mM by 4-fold dilution, total 8 doses were included; (2) make 2× solution in cell culture medium by transferring 0.5 ul 500× stock solution into 125 ul medium; (3) 50 ul of 2× solution is added to cells and incubate for 72 h.
Add 25 μl of the CellTiter-Glo®Reagent [I (Promega)—Cat No. G7572] to each well in the 96-well plate. Mix contents for 2 minutes on an orbital shaker to induce cell lysis. Allow the plate to incubate at room temperature for 10 minutes to stabilize luminescent signal. Record luminescence on BMG PheraStar with luminescence protocol.
(§1) The IC50 value of a compound can be obtained by fitting the following equation. Y=Bottom+(TOP−Bottom)/(1+((IC50/X)^hillslope)) Wherein, X and Y are known values, and IC50, Hillslope, Top and Bottom are the parameters obtained by fitting with software. Y is the inhibition percentage (calculated from the equation), X is the concentration of the compound; IC50 is the concentration of the compound when the 50% inhibition is reached. The smaller the IC50 value is, the stronger the inhibitory ability of the compound is. Vice versa, the higher the IC50 value is, the weaker the ability the inhibitory ability of the compound is; Hillslope represents the slope of the fitted curve, generally around 1*; Bottom represents the minimum value of the curve obtained by data fitting, which is generally 0%±20%; Top represents the maximum value of the curve obtained by data fitting, which is generally 100%±20%. The experimental data were fitted by calculating and analyzing with Dotmatics data analysis software.

The target in another test is T1, BTK (Homo sapiens, UniProt Q06187).
T1 construct: High control=Cell group with added DMSO and without compound, indicating microplate readings without BTK degradation; endogenous in cells; host or cells: TMD-8 cells
The test is described as follows: Cell Degradation: BTK degradation in TMD-8 cells, HTRF assay. In kind it is cell-based. Particulars: 6 h treatment, IC50 (DC50) of BTK degradation. On the procedure: TMD-8 cells are treated with compounds in 0.2% DMSO, dilution is done according to the following protocol: (1) make 500× stock solution in DMSO from 1 mM by 6-fold dilution, total 8 doses were included; (2) make 2× solution in cell culture medium by transferring 0.5 μl 500× stock solution into 125 μl medium; (3) 15 μl of 2× solution is added to cells and incubate for 6 h.
After 6 h treatment, add […] 4×lysis buffer to each well; seal the plate and incubate 30 min at room temperature on a plate shaker; Once the cells are lysed, 16 μL of cell lysate are transferred to a PE 384-well HTRF detection plate; 4 μL of pre-mixed HTRF antibodies are added to each well; Cover the plate with a plate sealer, spin 1000 rpm for 1 min, Incubate overnight at room temperature; Read on BMG PheraStar with HTRF protocol (337 nm-665 nm-620 nm).
The inhibition (degradation) percentage of the compound was calculated by the following equation: Inhibition percentage of Compound=100-100× (Signal-low control)/(High control-low control), wherein signal=each test compound group
Dmax is the maximum percentage of inhibition (degradation).
The IC50 (DC50) value of a compound can be obtained by fitting the following equation
Y=Bottom+(TOP-Bottom)/(1+((IC50/X)^hillslope))
as §1, with “Wherein,” for “The IC50 value of a compound can be obtained by fitting the following equation. Y=Bottom+(TOP−Bottom)/(1+((IC50/X)^hillslope)) Wherein,”, “1 *;” for “1*;”

pIC50: −log10 of the molar value. A value given as a limit tells only on which side of the number the result lay.

T1 sequence (Q06187 whole entry): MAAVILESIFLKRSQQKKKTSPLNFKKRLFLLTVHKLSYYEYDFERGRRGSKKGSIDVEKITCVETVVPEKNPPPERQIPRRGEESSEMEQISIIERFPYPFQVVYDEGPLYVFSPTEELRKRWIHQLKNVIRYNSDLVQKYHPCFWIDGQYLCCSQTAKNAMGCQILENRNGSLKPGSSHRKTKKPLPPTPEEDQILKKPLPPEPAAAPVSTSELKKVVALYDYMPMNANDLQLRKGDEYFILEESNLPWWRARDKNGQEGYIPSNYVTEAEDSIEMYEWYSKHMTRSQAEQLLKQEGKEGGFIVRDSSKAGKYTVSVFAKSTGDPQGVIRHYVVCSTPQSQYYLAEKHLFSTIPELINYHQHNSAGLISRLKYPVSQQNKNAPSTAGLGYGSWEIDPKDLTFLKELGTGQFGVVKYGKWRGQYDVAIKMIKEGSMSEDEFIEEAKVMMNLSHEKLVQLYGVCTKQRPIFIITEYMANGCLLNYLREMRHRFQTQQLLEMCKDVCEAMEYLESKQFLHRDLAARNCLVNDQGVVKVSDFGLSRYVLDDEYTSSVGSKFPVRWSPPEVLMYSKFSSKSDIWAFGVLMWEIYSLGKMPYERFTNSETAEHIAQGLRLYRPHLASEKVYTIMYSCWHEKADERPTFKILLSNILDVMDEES

In the test on HEK-293 cells, `Cc1cc(N2CCC(CN3CCN(c4ccc(-c5cc6c(-c7ccc([C@@H](C)NC(=O)c8noc(C(C)(C)C)n8)c(CO)c7)ncnc6[nH]5)nc4)CC3)CC2)ccc1N1CCC(=O)NC1=O` [Example 137, (R)-5-(tert-butyl)-N-(1-(4-(6-(5-(4-((1-(4-(2,4-dioxotetrahydropyrimidin-1(2H)-yl)-3-methylphenyl)piperidin-4-yl)methyl)piperazin-1-yl)pyridin-2-yl)-7H-pyrrolo[2,3-d]pyrimidin-4-yl)-2-(hydroxymethyl)phenyl)ethyl)-1,2,4-oxadiazole-3-carboxamide] had a pIC50 of less than 5.00. Moreover, half-maximal degradation on BTK (DC50) was put at 0.23 nM. On the same counts, the results for `Cc1cc(-c2ncnc3[nH]c(-c4ccc(N5CCN(CC6CCN(c7ccc(N8CCC(=O)NC8=O)cc7)CC6)CC5)cc4)cc23)c(F)cc1[C@@H](C)NC(=O)c1noc(C(C)(C)C)n1` [Example 107, (R)-5-(tert-butyl)-N-(1-(4-(6-(4-(4-((1-(4-(2,4-dioxotetrahydropyrimidin-1(2H)-yl)phenyl)piperidin-4-yl)methyl)piperazin-1-yl)phenyl)-7H-pyrrolo[2,3-d]pyrimidin-4-yl)-5-fluoro-2-methylphenyl)ethyl)-1 2,4-oxadiazole-3-carboxamide] are less than 5.00 and 1.7 nM. In the test on HEK-293 cells, `Cc1cc(-c2ncnc3[nH]c(-c4ccc(N5CCN(CC6CCN(c7ccc(N8CCC(=O)NC8=O)cc7)CC6)C[C@@H]5C)nc4)cc23)ccc1[C@@H](C)NC(=O)c1nc(C(C)(C)C)no1` [Example 106, 3-(tert-butyl)-N-((R)-1-(4-(6-(6-((S)-4-((1-(4-(2,4-dioxotetrahydropyrimidin-1(2H)-yl)phenyl)piperidin-4-yl)methyl)-2-methylpiperazin-1-yl)pyridin-3-yl)-7H-pyrrolo[2,3-d]pyrimidin-4-yl)-2-methylphenyl)ethyl)-1,2,4-oxadiazole-5-carboxamide] had a negative logarithm of the IC50 (pIC50) of less than 5.00. For the same compound, half-maximal degradation on BTK (DC50) was put at 4.6 nM. On the same counts, the results for `C[C@@H](NC(=O)c1nc(C(C)(C)C)no1)c1ccc(-c2ncnc3[nH]c(-c4ccc(N5CCN(CC6CCN(c7ccc(N8CCC(=O)NC8=O)cc7)CC6)CC5)cn4)cc23)cc1F` [Example 154, (R)-3-(tert-butyl)-N-(1-(4-(6-(5-(4-((1-(4-(2,4-dioxotetrahydropyrimidin-1(2H)-yl)phenyl)piperidin-4-yl)methyl)piperazin-1-yl)pyridin-2-yl)-7H-pyrrolo[2,3-d]pyrimidin-4-yl)-2-fluorophenyl)ethyl)-1,2,4-oxadiazole-5-carboxamide] are less than 5.00 and 0.79 nM. `C[C@@H](NC(=O)c1noc(C(C)(C)C)n1)c1cc(F)c(-c2ncnc3[nH]c(-c4ccc(N5CCN(CC6CCN(c7ccc(N8CCC(=O)NC8=O)cc7)CC6)CC5)cn4)cc23)cc1CO` [Example 171, (R)-5-(tert-butyl)-N-(1-(4-(6-(5-(4-((1-(4-(2,4-dioxotetrahydropyrimidin-1(2H)-yl)phenyl)piperidin-4-yl)methyl)piperazin-1-yl)pyridin-2-yl)-7H-pyrrolo[2,3-d]pyrimidin-4-yl)-5-fluoro-2-(hydroxymethyl)phenyl)ethyl)-1,2,4-oxadiazole-3-carboxamide]: in the test with HEK-293 cells, the pIC50 is less than 5.00. In addition, on BTK, it took 0.25 nM to reach half-maximal degradation (DC50).

In the case of `Cc1cc(-c2ncnc3[nH]c(-c4ccc(N5CCN(CC6CCN(c7ccc(N8CC(=O)NC8=O)cc7)CC6)CC5)cn4)cc23)ccc1[C@@H](C)NC(=O)c1nc(C(C)(C)C)no1` [Example 184, (R)-3-(tert-butyl)-N-(1-(4-(6-(5-(4-((1-(4-(2,4-dioxoimidazolidin-1-yl)phenyl)piperidin-4-yl)methyl)piperazin-1-yl)pyridin-2-yl)-7H-pyrrolo[2,3-d]pyrimidin-4-yl)-2-methylphenyl)ethyl)-1,2,4-oxadiazole-5-carboxamide], the negative-log IC50 (pIC50) in the test with HEK-293 cells was less than 5.00. Besides, on BTK, the DC50 came to 2.7 nM. On the same counts, the results for `Cc1cc(-c2ncnc3[nH]c(-c4ccc(N5CCN(Cc6ccc(C7CCC(=O)NC7=O)c(F)c6)CC5)cn4)cc23)ccc1[C@@H](C)NC(=O)c1nc(C(C)(C)C)no1` (stereo partly drawn) [Example 181, 3-(tert-butyl)-N-((1R)-1-(4-(6-(5-(4-(4-(2,6-dioxopiperidin-3-yl)-3-fluorobenzyl)piperazin-1-yl)pyridin-2-yl)-7H-pyrrolo[2,3-d]pyrimidin-4-yl)-2-methylphenyl)ethyl)-1,2,4-oxadiazole-5-carboxamide] are less than 5.00 and 1.58 nM. `Cc1cc(-c2ncnc3[nH]c(-c4ccc(N5CCN(CC6CCN(c7ccc(N8CCC(=O)NC8=O)cc7)CC6)CC5)cn4)cc23)ccc1[C@@H](C)NC(=O)c1nc(C2(C)CC2)no1` [Example 165, (R)-N-(1-(4-(6-(5-(4-((1-(4-(2,4-dioxotetrahydropyrimidin-1(2H)-yl)phenyl)piperidin-4-yl)methyl)piperazin-1-yl)pyridin-2-yl)-7H-pyrrolo[2,3-d]pyrimidin-4-yl)-2-methylphenyl)ethyl)-3-(1-methylcyclopropyl)-1,2,4-oxadiazole-5-carboxamide] had a negative logarithm of the IC50 (pIC50) in the test with HEK-293 cells of less than 5.00. Also, at BTK, the DC50 came out at 0.69 nM. On the same counts, the results for `Cc1cc(-c2ncnc3[nH]c(-c4ccc(N5CCN(CC6CCN(c7ccc(N8CCC(=O)NC8=O)cc7)CC6)C(=O)C5)cc4)cc23)ccc1[C@@H](C)NC(=O)c1nc(C(C)(C)C)no1` [Example 190, (R)-3-(tert-butyl)-N-(1-(4-(6-(4-(4-((1-(4-(2,4-dioxotetrahydropyrimidin-1(2H)-yl)phenyl)piperidin-4-yl)methyl)-3-oxopiperazin-1-yl)phenyl)-7H-pyrrolo[2,3-d]pyrimidin-4-yl)-2-methylphenyl)ethyl)-1,2,4-oxadiazole-5-carboxamide] are less than 5.00 and 0.28 nM. On the same counts, the results for `Cc1cc(-c2ncnc3[nH]c(-c4ccc(N5CCN(CC6CCN(c7ccc(-n8ccc(=O)[nH]c8=O)cc7)CC6)CC5)nc4)cc23)ccc1[C@@H](C)NC(=O)c1nc(C(C)(C)C)no1` [Example 187, (R)-3-(tert-butyl)-N-(1-(4-(6-(6-(4-((1-(4-(2,4-dioxo-3,4-dihydropyrimidin-1(2H)-yl)phenyl)piperidin-4-yl)methyl)piperazin-1-yl)pyridin-3-yl)-7H-pyrrolo[2,3-d]pyrimidin-4-yl)-2-methylphenyl)ethyl)-1,2,4-oxadiazole-5-carboxamide] are less than 5.00 and 2.65 nM. On the same counts, the results for `Cc1cc(-c2ncnc3[nH]c(-c4ccc(N5CCN(CC6CCN(c7ccc(N8CCC(=O)NC8=O)cc7)CC6)CC5)cn4)cc23)c(F)cc1[C@@H](C)NC(=O)c1noc(C(C)(C)C)n1` [Example 134, (R)-5-(tert-butyl)-N-(1-(4-(6-(5-(4-((1-(4-(2,4-dioxotetrahydropyrimidin-1(2H)-yl)phenyl)piperidin-4-yl)methyl)piperazin-1-yl)pyridin-2-yl)-7H-pyrrolo[2,3-d]pyrimidin-4-yl)-5-fluoro-2-methylphenyl)ethyl)-1,2,4-oxadiazole-3-carboxamide] are less than 5.00 and 0.54 nM. `Cc1cc(-c2ncnc3[nH]c(-c4c(C)nn(C5CCN(CC6CCN(c7ccc(N8CCC(=O)NC8=O)cc7)CC6)CC5)c4C)cc23)ccc1[C@@H](C)N(C)C(=O)c1nc(C(C)(C)C)no1` [Example 155, (R)-3-(tert-butyl)-N-(1-(4-(6-(1-(1-((1-(4-(2,4-dioxotetrahydropyrimidin-1(2H)-yl)phenyl)piperidin-4-yl)methyl)piperidin-4-yl)-3,5-dimethyl-1H-pyrazol-4-yl)-7H-pyrrolo[2,3-d]pyrimidin-4-yl)-2-methylphenyl)ethyl)-N-methyl-1,2,4-oxadiazole-5-carboxamide] had a half-maximal degradation concentration (DC50) on BTK of 13.3 nM.
